Test results from ChEMBL document CHEMBL4364326, “Design, synthesis and biological evaluation of 2-(4-alkoxy-3-cyano)phenyl-6-oxo-1,6-dihydropyrimidine-5-carboxylic acid derivatives as novel xanthine oxidase inhibitors” (Eur J Med Chem, 2019).
Calls of active or inactive are those of the source. The rule behind the calls is not given here.

Assays:
[1] = target: T1, Xanthine dehydrogenase/oxidase (Bos taurus, UniProt P80457); assay: Inhibition of bovine xanthine oxidase assessed as reduction in uric acid formation using xanthine as substrate preincubated with enzyme for 15 mins followed by substrate addition and measured every 30 secs for 2 mins by spectrophotometric method
[2] = target: T1, Xanthine dehydrogenase/oxidase; assay: Potency index, Ratio of allopurinol IC50 to compound IC50 for bovine xanthine oxidase using xanthine as substrate by spectrophotometry; details: cattle
Rattus norvegicus [3] = assay: Anti-hyperuricemic activity in potassium oxonate-induced acute hyperuricemia Sprague-Dawley rat model assessed as reduction in AUC of uric acid in serum at 10 mg/kg, ig pretreated for 1 hr followed by potassium oxonate challenge and measured at 2 hrs post drug administration (reference value: 23%); assay type: functional; details: po
Rattus norvegicus [4] = assay: Anti-hyperuricemic activity in potassium oxonate-induced acute hyperuricemia Sprague-Dawley rat model assessed as reduction in AUC of uric acid in serum at 5 mg/kg, ig pretreated for 1 hr followed by potassium oxonate challenge and measured at 2 hrs post drug administration (reference value: 23%); assay type: functional; details: po
[5] = Acute oral toxicity in KM mouse measured for 24 hrs by OCED guideline method; details: in vivo
[6] = Acute oral toxicity in KM mouse assessed as change in behavior at 2000 mg/kg measured for 24 hrs; assay type: organism-based; details: in vivo
[7] = target: T1, Xanthine dehydrogenase/oxidase; assay: Mixed type inhibition of bovine xanthine oxidase assessed as increase in Km with decrease in Vmax of the enzyme using xanthine as substrate preincubated with enzyme for 15 mins followed by substrate addition and measured every 30 secs for 2 mins by Lineweaver-Burk plot analysis; details: cattle
Rattus norvegicus [8] = assay: Anti-hyperuricemic activity in potassium oxonate-induced acute hyperuricemia Sprague-Dawley rat model assessed as reduction in uric acid level in serum at 5 mg/kg, ig pretreated for 1 hr followed by potassium oxonate challenge and measured at 2 hrs post drug administration; assay type: functional, organism-based

T1 sequence (P80457 whole entry): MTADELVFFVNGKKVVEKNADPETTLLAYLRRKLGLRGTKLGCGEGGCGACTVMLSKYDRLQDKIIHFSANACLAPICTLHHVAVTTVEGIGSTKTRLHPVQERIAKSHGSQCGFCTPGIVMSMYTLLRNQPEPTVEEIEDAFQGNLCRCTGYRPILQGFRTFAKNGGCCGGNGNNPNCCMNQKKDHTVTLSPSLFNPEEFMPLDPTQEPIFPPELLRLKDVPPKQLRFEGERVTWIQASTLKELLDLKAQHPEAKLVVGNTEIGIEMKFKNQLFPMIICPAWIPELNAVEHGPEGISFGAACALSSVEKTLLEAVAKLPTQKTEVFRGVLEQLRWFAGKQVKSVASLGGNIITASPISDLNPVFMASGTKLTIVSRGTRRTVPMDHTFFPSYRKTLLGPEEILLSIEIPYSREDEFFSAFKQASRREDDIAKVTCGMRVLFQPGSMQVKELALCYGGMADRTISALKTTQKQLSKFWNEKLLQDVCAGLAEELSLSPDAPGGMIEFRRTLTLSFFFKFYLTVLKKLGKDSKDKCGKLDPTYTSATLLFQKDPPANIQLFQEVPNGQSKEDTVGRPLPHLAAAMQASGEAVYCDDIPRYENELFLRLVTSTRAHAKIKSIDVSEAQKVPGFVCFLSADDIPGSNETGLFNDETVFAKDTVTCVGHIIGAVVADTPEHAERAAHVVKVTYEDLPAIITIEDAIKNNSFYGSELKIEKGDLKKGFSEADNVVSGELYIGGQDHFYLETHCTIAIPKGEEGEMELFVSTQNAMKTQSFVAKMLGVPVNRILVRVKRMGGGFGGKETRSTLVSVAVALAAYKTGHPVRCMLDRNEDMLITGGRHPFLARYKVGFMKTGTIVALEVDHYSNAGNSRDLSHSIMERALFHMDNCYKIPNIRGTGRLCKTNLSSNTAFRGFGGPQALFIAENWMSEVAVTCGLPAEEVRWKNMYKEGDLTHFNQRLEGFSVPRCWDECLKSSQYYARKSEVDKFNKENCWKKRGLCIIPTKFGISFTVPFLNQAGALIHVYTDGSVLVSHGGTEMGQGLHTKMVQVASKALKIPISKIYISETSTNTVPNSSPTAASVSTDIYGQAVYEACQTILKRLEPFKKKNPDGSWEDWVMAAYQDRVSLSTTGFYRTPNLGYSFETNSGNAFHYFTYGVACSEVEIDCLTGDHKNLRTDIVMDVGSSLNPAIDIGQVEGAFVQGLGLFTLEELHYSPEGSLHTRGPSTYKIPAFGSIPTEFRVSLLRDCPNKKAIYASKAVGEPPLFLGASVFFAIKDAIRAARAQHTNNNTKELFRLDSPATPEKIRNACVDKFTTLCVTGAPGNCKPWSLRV

Row | SMILES | IC50 [1] [nM] | other results
1 | C=C(C)COc1ccc(-c2ncc(C(=O)O)c(=N)[nH]2)cc1C#N | 18.1 | Ratio IC50 [2]: 419
2 | N#Cc1cc(-c2ncc(C(=O)O)c(=N)[nH]2)ccc1OCc1ccc(Br)cc1 | 27.1 | –
3 | Oc1ncnc2[nH]ncc12 [ALLOPURINOL] | – | inhibition in vivo at 10 mg/kg (Rattus norvegicus [3]): 38.7%
4 | CC(C)CCOc1ccc(-c2ncc(C(=O)O)c(=O)[nH]2)cc1C#N | 25 | –
5 | C=CCOc1ccc(-c2ncc(C(=O)O)c(=O)[nH]2)cc1C#N | 81.1 | –
6 | CC(C)COc1ccc(-c2ncc(C(=O)O)c(=O)[nH]2)cc1C#N | 60.9 | –
7 | C=C(C)COc1ccc(-c2nc(C)c(C(=O)O)c(=O)[nH]2)cc1C#N | 568 | –
8 | Cc1nc(-c2ccc(OCC(C)C)c(C#N)c2)sc1C(=O)O [FEBUXOSTAT] | – | inhibition in vivo at 5 mg/kg (Rattus norvegicus [4]): 50.8%
9 | C=C(C)COc1ccc(-c2ncc(C(=O)O)c(=O)[nH]2)cc1C#N | 33.6 | –
10 | Cc1nc(-c2ccc(OCc3ccc(Br)cc3)c(C#N)c2)[nH]c(=O)c1C(=O)O | 185 | –
11 | CC(C)CCOc1ccc(-c2ncc(C(=O)O)c(=N)[nH]2)cc1C#N | – | LD50 at 24 h [5]: > 2000 mg/kg; Activity [6]: Non-Toxic; inhibition in vivo at 5 mg/kg (Rattus norvegicus [4]): 36.1%; inhibition (INH) [7]: Active; inhibition (Rattus norvegicus [8]): Active
12 | CC(C)=CCOc1ccc(-c2ncc(C(=O)O)c(=O)[nH]2)cc1C#N | 38.8 | –
13 | CC(C)Oc1ccc(-c2ncc(C(=O)O)c(=O)[nH]2)cc1C#N | 91.6 | –
14 | Cc1nc(-c2ccc(OCCC(C)C)c(C#N)c2)[nH]c(=O)c1C(=O)O | 540 | –

The next lines start with results.

Row | IC50 [1] [nM] | SMILES | other results
15 | 33.9 | Cc1ccc(COc2ccc(-c3ncc(C(=O)O)c(=N)[nH]3)cc2C#N)cc1 | –
16 | 49.9 | N#Cc1cc(-c2ncc(C(=O)O)c(=O)[nH]2)ccc1OCc1ccc(Cl)cc1 | –
17 | 35.4 | Cc1ccc(COc2ccc(-c3ncc(C(=O)O)c(=O)[nH]3)cc2C#N)cc1 | –
18 | 197 | CC(C)(C)c1ccc(COc2ccc(-c3ncc(C(=O)O)c(=O)[nH]3)cc2C#N)cc1 | –
19 | 29.8 | N#Cc1cc(-c2ncc(C(=O)O)c(=O)[nH]2)ccc1OCc1ccc(Br)cc1 | –
20 | 38.7 | N#Cc1cc(-c2ncc(C(=O)O)c(=O)[nH]2)ccc1OCc1ccccc1 | –
21 | 38.2 | N#Cc1cc(-c2ncc(C(=O)O)c(=O)[nH]2)ccc1OCc1ccc(F)cc1 | –
22 | 159 | Cc1ccc(COc2ccc(-c3nc(C)c(C(=O)O)c(=O)[nH]3)cc2C#N)cc1 | –
